Patent US20230042917A1, “DIRECT REPROGRAMMING OF SOMATIC CELLS INTO MYOGENIC CELLS” (THE GENERAL HOSPITAL CORPORATION, priority 2016, published 2023)

Test system: MEFs expressing MyoD
Experiment: Reprogramming of MyoD-expressing MEFs with small molecules (myotubes, proliferative cells, contraction, Pax7 staining)
Assay type: cell-based, mouse
Conditions: for formation of MyHC+, polynucleated myotubes / generation of proliferative cells: Knockout DMEM, 10% KOSR, 10% FBS, 10 ng/ml bFGF
Text: A doxycycline (dox) inducible lentiviral system (tetOP-MyoD) was engineered, allowing for inducible and reversible activation of MyoD in target cells. […] The myogenic identity of converted cells was confirmed by immunofluorescence staining for the differentiation marker myosin heavy chain (MyHC), which was absent in uninfected MEFs (FIG. 14C).
MEFs undergoing MyoD-induced lineage conversion were exposed to various small molecules and cytokines in an attempt to induce reprogramming into a proliferative, myogenic progenitor-like cell state in addition to mature myotubes (FIG. 14A, bottom row). Specifically, compounds including the GSK3β inhibitor CHIR99021 (abbreviated as “G”) and the TGF-01 receptor inhibitor RepSox (abbreviated as “R”) were used. In addition, the effect of the cyclic AMP agonist Forskolin (abbreviated as “F”), which reportedly facilitates the transient expansion of satellite cells in vitro was tested. These compounds were added individually or combinatorially to MEFs expressing MyoD and cultured in Knockout DMEM media containing 10% KOSR and 10% FBS and supplemented with 10 ng/ml bFGF, which promotes satellite cell and myoblast growth. […] Cultures treated with these small molecules typically assembled into three-dimensional colonies with emanating myotubes and numerous small, round cells that seem to be muscle progenitors (FIG. 14B and live video monitoring was used to monitor the muscle progenitors). KOSR media contains ascorbic acid, which enhances reprogramming into iPSCs by modulating epigenetic regulators. To determine whether ascorbic acid is required for the induction of these proliferative, putative progenitor cells using our culture system, MEFs expressing MyoD were exposed to F/R in the presence or absence of ascorbic acid using DMEM media containing FBS and bFGF but lacking KOSR.
To assess the temporal requirement for exogenous MyoD expression and small molecules during the establishment and maintenance of our progenitor-like cell population, infected MEFs were treated with dox for 0, 2, 4, 6, 8 or 10 days in the presence of F/R, followed by 5 days of dox withdrawal before scoring for colonies that proliferated and contracted (FIG. 14G). […] By contrast, continuous exposure of cultures to F/R was required to maintain these cultures upon passaging (FIG. 14G and data not shown). Thus, without being bound by any particular theory, small molecules and growth factors collaborate with transient MyoD expression to endow MEFs with a myogenic progenitor-like state. These cells are provisionally termed “induced myogenic progenitor cells” (iMPCs).
Mouse embryonic fibroblasts (MEFs), Tail-tip fibroblasts (TTFs) and the commercial myoblast cell line C2C12 (ATCC®CRL-1772™) were cultured in “MEF medium” containing DMEM (ThermoFisher Scientific, catalog number 10313-021), supplemented with 10% Fetal Bovine Serum (FBS) (HyClone catalog number SH30396.03), 1% GlutaMAX (ThermoFisher Scientific, catalog number 35050061), 1% non-essential amino acids (ThermoFisher Scientific, catalog number 11140050), 1% penicillin-streptomycin (ThermoFisher Scientific, catalog number 15140122), 0.5% β-mercaptoethanol (ThermoFisher Scientific, catalog number 21985-023). Freshly isolated satellite cells and derivative myoblasts were cultured using a 1:1 ratio of DMEM and F-10 (1×) Nutrient mix (ThermoFisher Scientific, catalog number 11550-043) supplemented with 10% horse serum (ThermoFisher Scientific, catalog number 16050-122), 20% FBS (HyClone catalog number SH30396.03) and […] basic-FGF (R&D 233-FB). Satellite cells and myoblasts were cultured on plates coated with Matrigel Basement Membrane Matrix (Catalog number 356237, Corning). […]

In the case of `Cc1c[nH]c(-c2cnc(NCCNc3ccc(C#N)cn3)nc2-c2ccc(Cl)cc2Cl)n1` [G, CHIR99021], the “Pax7+ cells (immunofluorescence)” value (MEFs expressing MyoD, in the presence of KOSR or ascorbate) is reported as “only in the presence of FR”, the “formation of MyHC+, polynucleated myotubes” value (MEFs expressing MyoD) is reported as “increased” and the “generation of proliferative cells” value (MEFs expressing MyoD) is reported as “did not generate any proliferative cells”.

For `Cc1cccc(-c2n[nH]cc2-c2ccc3ncccc3n2)n1` [R, 2-3[(6-methyl-2-pyridinyl)-1H-pyrazol-4-yl]-1,5-napthyridine], the “formation of MyHC+, polynucleated myotubes” value (MEFs expressing MyoD) was “increased” and the “generation of proliferative cells” value (MEFs expressing MyoD) was “did not generate any proliferative cells”.

In the case of `O=C1O[C@H]([C@@H](O)CO)C(O)=C1O` [ascorbic acid], the “generation of proliferative cells and contracting myotubes” value (MEFs expressing MyoD exposed to F/R, DMEM with FBS and bFGF lacking KOSR) is reported as “depended on ascorbic acid” and the “Pax7+ iMPC formation after withdrawal of SR” value (MyoD + FR, medium without serum replacement) is reported as “partially rescues this phenotype”.
